The source of these data is patent US20230095026A1, “METHOD FOR STIMULATING AND INDUCING CHANGES IN ENVIRONMENT AROUND AGED SKIN CELLS” (AMOREPACIFIC CORPORATION, priority 2019, published 2023).

Assay [1] concerns pigment-forming cells. Briefly: Change in morphology and cell number of UVB-aged pigment-forming cells, SA-β-gal staining. Format: cell-based, human. As for the experimental part:
Subsequently, the cells were treated with a compound represented by Chemical Formula E (Sigma-Aldrich Co., Ltd.).

Assay [2] has as its system Fibroblast cells. Briefly: Change in the number of UVB-aged fibroblast cells, SA-β-gal staining. The assay is classed as cell-based, human.

For `O=C(O)[C@]1(O)C[C@@H](O)[C@@H](O)[C@H](O)C1` [Chemical Formula E], the number of cells result in assay [1] (UVB-aged pigment-forming cells treated with the compound, FIGS. 1 and 2) is given as “the number of cells increased again”; in assay [2] (UVB-aged fibroblasts treated with the compound, FIGS. 4 and 5), “the number of cells increased again depending on the concentration”. Moreover, the “ratio of the number of the aged cells stained with SA-β-gal to the total number of cells” value in assay [1] (UVB-aged pigment-forming cells, FIG. 3) is “decreased depending on the concentration”; in assay [2] (UVB-aged fibroblasts, FIG. 6), “decreased depending on the concentration”.
